# “And” between values parts separate entries of the source, which are not always exact repeats. Identical values can stand only once. Where no end group is shown, it is not given here.
# Tested on: MVF-PD-L1 peptide immunogen
# Test: Immunogenicity in Balb/c mice, experiment 1 (CT26 WT): ELISA of sera vs each MVF-PD-L1 peptide immunogen
# Type: in vivo
# Details: for Immunogenicity (titers) 1′ Conc. 1:: Balb/c mice
# Method: Immunogenicity of MVF-PD-L1 B-cell epitopes. New Zealand White rabbits were immunized with 1 mg of each MVF-peptide immunogens dissolved in dd H2O emulsified (1:1) in Montanide ISA 720 vehicle (Seppic) with 333 μg of N-acetylglucosamine-3yl-acetyl-1-alanyl-d-isoglutamine (nor-MDP). Rabbits were boosted with the same doses at 3-week's intervals. Blood was collected via the central auricular artery in rabbits. Blood was collected weekly (1Y+3, 2Y+1, 2Y+2,2Y+3, 3Y+1, 3Y+2 and sera tested for antibody titers by ELISA using the immunogens MVF-PD-L1 peptides. Sera (terminal) from rabbit (3Y+3) immunized with MVF-PD-1 peptide immunogens were tested individually versus the immunogen by ELISA. 200 ng/well peptide were used in duplicates to coat the ELISA plates. Titers are defined as the highest dilution of sera with an absorbance value of 0.2 after subtracting the blank.
# FIGS. 5A, 5B, 5C, and 5D show the experimental scheme to test the immunization with PD-L1 in Balb/c mice. […] Balb/c mice 6-8 weeks old, were immunized with MVF-peptide immunogens emulsified in ISA 720 with nor-MDP three times and three weeks apart. Mice were immunized with MVF-PD-L1 vaccine constructs [PD-L1(36-53), PD-L1(50-67), PD-L1(95-112), PD-L1(130-147)] prior to tumor challenge. Blood was collected weekly and sera tested for antibody titers by ELISA. Two weeks after the third immunization (3Y), the mice were engrafted with CT26 WT tumor cells 10^5 per mouse Control mice were treated twice weekly with PBS as negative control and twice weekly with anti-mPD-L1 mAb (10F.9G2) as positive control starting 2 days after tumor challenge. Tumor growths were observed twice weekly and measured by calipers.
# Immunogenicity of MVF-PD-L1 peptides in BALB/c mice immunized with various peptide constructs. Sera collected weekly were tittered against each individual MVF-PD-L1 peptide immunogen. The Pink bar refers to titers versus PD-L1 130 and the red bar refers to titers versus PD-1 (92-110).
# In order to verify the efficacy of the PD-L1 epitope vaccines in vivo in the CT26 carcinoma cell line, Balb/c mice (10 mice/group) were immunized with 100 μg each of MVF-PD-L1 (36-53), MVF-PD-L1 (50-67), MVF-PD-L1 (95-112) and MVF-PD-L1 (130-147) emulsified with nor-MDP and Montanide 720 (1:1 ratio) SCHEME 1A (FIG. 5A). As detailed in SCHEME 1A-D (FIGS. 5A, 5B, 5C, and 5D), mice were immunized 3 times at 3 weeks intervals. […] All PD-L1 epitopes elicited high titers of PD-L1 anti-peptide antibodies by ELISA. […] We also investigated the combination of PD-1(92-110) with PD-L1-130-147.
# For each peptide, vaccine antibodies were raised in New Zealand white rabbits, purchased from Charles River Laboratories (Wilmington, MA, USA). Rabbits were immunized with 1 mg of MVF chimeric peptide emulsified in Montanide ISA 720 (Seppic, Paris, France) and boosted 3 times at three week intervals. For mouse experiments, mice, 6-8 weeks old, were immunized with 0.1 mg of peptide emulsified in ISA720 (1:1 ratio). Mice were boosted with the respective doses at 3-week intervals. Blood was then collected and sera were tested for antibody titers. Sera were collected weekly and peptide vaccine antibodies were purified by affinity chromatography using a protein A/G column and the concentration was measured using Spectrophometer. All experiments were performed in accordance with the U.S. Public Health Service Policy on Humane Care and Use of Laboratory animals and approved by the Ohio State University Institutional Animals Care and Use Committee, detailed in the accepted protocol.
# 6-8 weeks old BALB/c mice (Charles River, Wilmington, MA) were used as standard animal models. Mouse CT26 colon carcinoma cell line was purchased from American Type Culture Collection Cells and were regularly cultured in RPMI1640 medium containing 10% FBS. CT26/HER2 cells were kindly provided by M. Penichet. Vaccines were dissolved in sterile water and emulsified in Montanide ISA 720 (1:1). […]
sequence,measurement,setting,value
KLLSLIKGVIVHRLEGVEGPSLVTSEHELTCQAEGYPKAE (KLLSLIKGVIVHRLEGVEGPSLVTSEHELTCQAEGYPKAE-NH2) [PD-L1(130)],Immunogenicity (titers) 1′ Conc. 1:,bleed 1Y + 3,12800
same,Immunogenicity (titers) 1′ Conc. 1:,bleed 2Y + 1,12800
same,Immunogenicity (titers) 1′ Conc. 1:,bleed 2Y + 2,>12800
same,Immunogenicity (titers) 1′ Conc. 1:,bleed 2Y + 3,128000
same,Immunogenicity (titers) 1′ Conc. 1:,bleed 3Y + 1,128000
same,Immunogenicity (titers) 1′ Conc. 1:,bleed 3Y + 2,64000
same,Immunogenicity (titers) 1′ Conc. 1:,bleed 3Y + 3,64000
same,ELISA absorbance of sera,"bleed 1Y + 3 (1to100), dilution 100, primary antibody dilution 1:100",1.571 and 1.562
same,ELISA absorbance of sera,"bleed 1Y + 3 (1to100), dilution 200, primary antibody dilution 1:200",1.513 and 1.428
same,ELISA absorbance of sera,"bleed 1Y + 3 (1to100), dilution 400, primary antibody dilution 1:400",1.359 and 1.348
same,ELISA absorbance of sera,"bleed 1Y + 3 (1to100), dilution 800, primary antibody dilution 1:800",1.151 and 1.105
same,ELISA absorbance of sera,"bleed 1Y + 3 (1to100), dilution 1,600",0.888 and 0.871
same,ELISA absorbance of sera,"bleed 1Y + 3 (1to100), dilution 3,200",0.580 and 0.528
same,ELISA absorbance of sera,"bleed 1Y + 3 (1to100), dilution 6,400",0.348 and 0.314
same,ELISA absorbance of sera,"bleed 1Y + 3 (1to100), dilution 12,800",0.204 and 0.196
same,ELISA absorbance of sera,"bleed 2Y + 1 (1to100), dilution 100, primary antibody dilution 1:100",1.492 and 1.522
same,ELISA absorbance of sera,"bleed 2Y + 1 (1to100), dilution 200, primary antibody dilution 1:200",1.511 and 1.473
same,ELISA absorbance of sera,"bleed 2Y + 1 (1to100), dilution 400, primary antibody dilution 1:400",1.450 and 1.355
same,ELISA absorbance of sera,"bleed 2Y + 1 (1to100), dilution 800, primary antibody dilution 1:800",1.299 and 1.243
same,ELISA absorbance of sera,"bleed 2Y + 1 (1to100), dilution 1,600",1.049 and 0.898
same,ELISA absorbance of sera,"bleed 2Y + 1 (1to100), dilution 3,200",0.757 and 0.652
same,ELISA absorbance of sera,"bleed 2Y + 1 (1to100), dilution 6,400",0.461 and 0.403
same,ELISA absorbance of sera,"bleed 2Y + 1 (1to100), dilution 12,800",0.286 and 0.239
same,ELISA absorbance of sera,"bleed 2Y + 2 (1to100), dilution 100",1.483 and 1.544
same,ELISA absorbance of sera,"bleed 2Y + 2 (1to100), dilution 200",1.510 and 1.484
same,ELISA absorbance of sera,"bleed 2Y + 2 (1to100), dilution 400",1.508 and 1.469
same,ELISA absorbance of sera,"bleed 2Y + 2 (1to100), dilution 800",1.407 and 1.322
same,ELISA absorbance of sera,"bleed 2Y + 2 (1to100), dilution 1,600",1.252 and 1.192
same,ELISA absorbance of sera,"bleed 2Y + 2 (1to100), dilution 3,200",0.977 and 0.852
same,ELISA absorbance of sera,"bleed 2Y + 2 (1to100), dilution 6,400",0.704 and 0.577
same,ELISA absorbance of sera,"bleed 2Y + 3 (1to1k), dilution 100",1.227 and 1.226
same,ELISA absorbance of sera,"bleed 2Y + 3 (1to1k), dilution 200",1.175 and 1.183
same,ELISA absorbance of sera,"bleed 2Y + 3 (1to1k), dilution 400",1.164 and 1.091
same,ELISA absorbance of sera,"bleed 2Y + 3 (1to1k), dilution 800",1.040 and 0.957
same,ELISA absorbance of sera,"bleed 2Y + 3 (1to1k), dilution 1,600",0.846 and 0.797
same,ELISA absorbance of sera,"bleed 2Y + 3 (1to1k), dilution 3,200",0.665 and 0.655
same,ELISA absorbance of sera,"bleed 2Y + 3 (1to1k), dilution 6,400",0.432 and 0.397
same,ELISA absorbance of sera,"bleed 3Y + 1 (1to1k), dilution 100",1.387 and 1.385
same,ELISA absorbance of sera,"bleed 3Y + 1 (1to1k), dilution 200",1.327 and 1.336
same,ELISA absorbance of sera,"bleed 3Y + 1 (1to1k), dilution 400",1.315 and 1.233
same,ELISA absorbance of sera,"bleed 3Y + 1 (1to1k), dilution 800",1.176 and 1.081
same,ELISA absorbance of sera,"bleed 3Y + 1 (1to1k), dilution 1,600",0.955 and 0.901
same,ELISA absorbance of sera,"bleed 3Y + 1 (1to1k), dilution 3,200",0.752 and 0.740
same,ELISA absorbance of sera,"bleed 3Y + 1 (1to1k), dilution 6,400",0.488 and 0.449
same,ELISA absorbance of sera,"bleed 3Y + 2 (1to1k), dilution 100",1.562 and 1.601
same,ELISA absorbance of sera,"bleed 3Y + 2 (1to1k), dilution 200",1.394 and 1.374
same,ELISA absorbance of sera,"bleed 3Y + 2 (1to1k), dilution 400",1.156 and 1.199
same,ELISA absorbance of sera,"bleed 3Y + 2 (1to1k), dilution 800",0.867 and 0.876
same,ELISA absorbance of sera,"bleed 3Y + 2 (1to1k), dilution 1,600",0.656 and 0.658
same,ELISA absorbance of sera,"bleed 3Y + 2 (1to1k), dilution 3,200",0.439 and 0.431
same,ELISA absorbance of sera,"bleed 3Y + 2 (1to1k), dilution 6,400",0.286
same,ELISA absorbance of sera,"bleed 3Y + 3 (1to1k), dilution 100",1.823 and 1.827
same,ELISA absorbance of sera,"bleed 3Y + 3 (1to1k), dilution 200",1.614 and 1.704
same,ELISA absorbance of sera,"bleed 3Y + 3 (1to1k), dilution 400",1.411 and 1.516
same,ELISA absorbance of sera,"bleed 3Y + 3 (1to1k), dilution 800",1.110 and 1.208
same,ELISA absorbance of sera,"bleed 3Y + 3 (1to1k), dilution 1,600",0.752 and 0.880
same,ELISA absorbance of sera,"bleed 3Y + 3 (1to1k), dilution 3,200",0.445 and 0.537
same,ELISA absorbance of sera,"bleed 3Y + 3 (1to1k), dilution 6,400",0.243
